Measurements: patent US8192962B2, “Processes for detecting toxic substances” (Daikin Industries, Ltd., priority 2001, dated 2012)

System: Transport facilitation protein genes
Test: DNA chip mRNA expression in yeast, transport facilitation protein genes (Table 5)
Format: cell-based, Saccharomyces cerevisiae S288C
In short: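 Untreated cultures served as reference for log-phase S288C yeast given a growth-inhibiting, non-lethal toxicant dose for 2 h at 25° C. in YPD. Gene expression was measured on a whole-genome DNA chip from Cy3/Cy5-labeled cDNA.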

Measured: The level of expressed mRNA in the presence of chemical substance/The level of expressed mRNA in the absence of chemical substance

C=CC=O [(14), acrolein]
1.1: yeast gene YBR132C | yeast gene YBR295W | yeast gene YCR098C | yeast gene YDL210W
1.5: yeast gene YBR052C | yeast gene YDR086C | yeast gene YDR298C | yeast gene YGR197C
1.7: yeast gene YDL198C
1.0: yeast gene YDR270W | yeast gene YFL041W | yeast gene YFL050C | yeast gene YGL104C | yeast gene YGL255W
1.8: yeast gene YBR068C
1.4: yeast gene YBR293W | yeast gene YEL027W
0.7: yeast gene YCL025C | yeast gene YDL128W | yeast gene YGR191W | yeast gene YGR260W
1.3: yeast gene YBR294W | yeast gene YCL038C | yeast gene YER053C | yeast gene YGR065C
0.6: yeast gene YBL099W | yeast gene YBR127C | yeast gene YDR497C
0.9: yeast gene YBR207W | yeast gene YBR298C | yeast gene YDR039C | yeast gene YDR342C | yeast gene YDR387C | yeast gene YFL054C | yeast gene YGL006W | yeast gene YGR082W | yeast gene YGR138C | yeast gene YGR224W | yeast gene YGR281W
0.4: yeast gene YEL065W
1.2: yeast gene YDL245C | yeast gene YGL008C | yeast gene YGR055W | yeast gene YGR096W
0.8: yeast gene YBL030C | yeast gene YCR024C-A | yeast gene YCR037C | yeast gene YDR038C | yeast gene YDR343C | yeast gene YDR345C | yeast gene YEL063C | yeast gene YFL011W | yeast gene YGL167C
